Some test systems named below: HCT-116; HCT-15; U-251; HOP-62; SK-MEL-2; NCI-H460; HCC 2998; OVCAR-8; MDA-MB-435; MDA-N; SK-MEL-5; NCI-H226; SK-OV-3; K562; TK-10; A549; BT-549; SF-268; PC-3.
Holding throughout (assay): NCI anticancer screen, dose series, 48 h

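96-well plates; 48 h exposure; 5 concentrations. Endpoints by linear interpolation between flanking doses. Not reached: highest tested concentration assigned. At the GI50, growth is halved.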 Calls of active or inactive are those of the source. No stated cut-off is given here; in the data, active = GI50 up to about 1.1 µM and inactive = higher.

As for `CC(C)Oc1c(-c2c(OC(C)C)c(=O)c2=O)c(=O)c1=O`, the GI50 with HCT-116 is > 32.4 µM (inactive); with HCT-15, above 60.5 µM; in the experiment on U-251 it was > 36.5 µM (inactive); in the experiment on HOP-62, > 36.1 µM (inactive); in the experiment with SK-MEL-2 it was > 56.9 µM (inactive); in the experiment on NCI-H460 it was > 60.7 µM (inactive). Also, the GI50 was > 55.3 µM (inactive) in the experiment with HCC 2998; > 34.7 µM (inactive) in the experiment on OVCAR-8; > 30.2 µM (inactive) with MDA-MB-435; > 29 µM (inactive) with MDA-N; > 41.6 µM (inactive) in the experiment on SK-MEL-5; > 78.3 µM (inactive) in the experiment on NCI-H226. The GI50 in the experiment with SK-OV-3 is > 100 µM (inactive); in the experiment with K562 it was > 31.8 µM (inactive); in the experiment with TK-10, > 70.1 µM (inactive); with A549 it was > 100 µM (inactive); in the experiment with BT-549, > 48 µM (inactive); in the experiment with SF-268, > 47.3 µM (inactive).
On to `CC1=CC(=O)C(=C(C)C)CC1`, for which the GI50 in the experiment on HCT-116 is > 100 µM (inactive); in the experiment with HCT-15 it was above 100 µM; in the experiment with U-251, > 100 µM (inactive); in the experiment on HOP-62, > 100 µM (inactive); in the experiment on PC-3, > 100 µM (inactive); in the experiment on NCI-H460 it was > 100 µM (inactive). The GI50 with OVCAR-8, in the experiment on MDA-MB-435, in the experiment on MDA-N, in the experiment with SK-MEL-5, with NCI-H226 and in the experiment on SK-OV-3 was > 100 µM (inactive) each time. The GI50 in the experiment with K562, in the experiment with TK-10, with A549, with BT-549 and in the experiment with SF-268 was > 100 µM (inactive) in each case.
Regarding `CCCCCC(=O)N[C@@H](c1ccccc1)C(O)C(=O)OC1C[C@@]2(O)C(OC(=O)c3ccccc3)C3[C@](C)(C(=O)[C@H](O)C(=C1C)C2(C)C)C(OC1OCC(O)C(O)C1O)C[C@H]1OC[C@@]31OC(C)=O` (some centres not stated), the GI50 was 0.516 µM (active) with HCT-116; above 100 µM with HCT-15; 1.64 µM (inactive) in the experiment on U-251; 5.05 µM (inactive) in the experiment with HOP-62; 1.29 µM (inactive) in the experiment with PC-3; 0.757 µM (active) in the experiment on NCI-H460. In addition, the GI50 was 1.6 µM (inactive) in the experiment on HCC 2998; 6.35 µM (inactive) in the experiment on OVCAR-8; 0.202 µM (active) in the experiment on MDA-MB-435; 0.078 µM (active) in the experiment with MDA-N; 1.9 µM (inactive) in the experiment with SK-MEL-5; > 100 µM (inactive) in the experiment on NCI-H226. The GI50 with SK-OV-3 was 3.04 µM (inactive); in the experiment with K562 it was 0.966 µM (active); with TK-10, 63.2 µM (inactive); in the experiment on A549 it was 7.24 µM (inactive); in the experiment with BT-549, 2.62 µM (inactive); in the experiment with SF-268 it was 2.32 µM (inactive).
For `CC(=O)N1C(OC(C)C)CC(C)N1c1ccccc1` (configuration not stated), the GI50 in the experiment on HCT-116 is > 10 µM (inactive); with HCT-15 it was above 10 µM; in the experiment with HOP-62, > 10 µM (inactive); with PC-3, > 10 µM (inactive); in the experiment on SK-MEL-2, > 10 µM (inactive); with NCI-H460 it was > 10 µM (inactive). Besides, the GI50 in the experiment on HCC 2998, in the experiment with OVCAR-8, with MDA-MB-435, in the experiment on MDA-N, in the experiment with SK-MEL-5 and in the experiment on NCI-H226 was > 10 µM (inactive) throughout. Further, the GI50 in the experiment on K562, in the experiment with TK-10, with A549, in the experiment on BT-549 and in the experiment with SF-268 was > 10 µM (inactive) in each case.
Consider `COc1ccc2c(c1)C1OCCNC1CC2` (configuration not stated), for which the GI50 is > 100 µM (inactive) in the experiment on HCT-116; above 100 µM in the experiment with HCT-15; > 100 µM (inactive) in the experiment on U-251; > 100 µM (inactive) in the experiment on HOP-62; > 100 µM (inactive) with PC-3; > 100 µM (inactive) in the experiment with SK-MEL-2. The GI50 with OVCAR-8, in the experiment with MDA-MB-435, in the experiment with MDA-N, with SK-MEL-5, with NCI-H226 and with SK-OV-3 was > 100 µM (inactive) each time. Besides, the GI50 with K562, in the experiment with TK-10, in the experiment on A549, in the experiment on BT-549 and with SF-268 was > 100 µM (inactive) throughout.
For the molecule `CC(C)(C)OC(=O)NC(Cc1ccc(O)cn1)C(N)=O` (configuration not stated), the GI50 was > 100 µM (inactive) in the experiment with HCT-116; above 100 µM in the experiment with HCT-15; > 100 µM (inactive) with U-251; > 100 µM (inactive) in the experiment on HOP-62; > 100 µM (inactive) with PC-3; > 100 µM (inactive) in the experiment with NCI-H460. Besides, the GI50 in the experiment on HCC 2998, in the experiment on OVCAR-8, in the experiment with MDA-MB-435, in the experiment on MDA-N, with SK-MEL-5 and with NCI-H226 was > 100 µM (inactive) in each case. The GI50 in the experiment on TK-10, with A549, in the experiment with BT-549 and in the experiment with SF-268 was > 100 µM (inactive) throughout.
`Cc1ccc(C2=Nn3c(nc4sc(C)c(C)c4c3=O)SC2)cc1`: the GI50 in the experiment on HCT-116 is > 100 µM (inactive); with HCT-15 it was above 100 µM; with U-251 it was > 100 µM (inactive); with HOP-62, 64.1 µM (inactive); in the experiment with PC-3, > 100 µM (inactive); with NCI-H460 it was > 100 µM (inactive). Also, the GI50 in the experiment with HCC 2998, in the experiment with OVCAR-8, with MDA-MB-435, in the experiment with MDA-N, with SK-MEL-5 and in the experiment with NCI-H226 was > 100 µM (inactive) each time. In addition, the GI50 with SK-OV-3 was > 100 µM (inactive); with K562, > 100 µM (inactive); in the experiment with TK-10, 23.3 µM (inactive); in the experiment with A549 it was > 100 µM (inactive); in the experiment with BT-549, > 100 µM (inactive); with SF-268 it was > 100 µM (inactive).
In the case of `OCC1OC(NCCNCCNC2OC(CO)C(O)C(O)C2O)C(O)C(O)C1O` (configuration not stated), the GI50 in the experiment with HCT-116 is > 100 µM (inactive); in the experiment on HCT-15, above 100 µM; in the experiment on U-251, > 100 µM (inactive); in the experiment with HOP-62, > 100 µM (inactive); in the experiment on PC-3, > 100 µM (inactive); with SK-MEL-2, > 100 µM (inactive). Further, the GI50 in the experiment on NCI-H460, in the experiment on HCC 2998, in the experiment on OVCAR-8, in the experiment with MDA-N, in the experiment with SK-MEL-5 and in the experiment on NCI-H226 was > 100 µM (inactive) in each case. The GI50 with SK-OV-3, in the experiment on K562, in the experiment on TK-10, in the experiment with A549, in the experiment with BT-549 and in the experiment with SF-268 was > 100 µM (inactive) throughout.
`N#Cc1cnc(-n2[nH]c3c(c2=O)CCCC3)[nH]c1=O`: the GI50 in the experiment with HCT-116 is 38 µM (inactive); with HCT-15, 41.1 µM; in the experiment on U-251 it was 58.6 µM (inactive); in the experiment with PC-3 it was 59.4 µM (inactive); in the experiment with SK-MEL-2, 71.3 µM (inactive); in the experiment on NCI-H460, 36.5 µM (inactive). Further, the GI50 with MDA-MB-435 was 54.5 µM (inactive); with MDA-N, > 100 µM (inactive); in the experiment with SK-MEL-5 it was 48.1 µM (inactive); in the experiment with NCI-H226, 47.8 µM (inactive); in the experiment with SK-OV-3, 75.3 µM (inactive); with K562, 69.8 µM (inactive). Moreover, the GI50 in the experiment on TK-10 was 51.5 µM (inactive); with A549, 38.5 µM (inactive); in the experiment on BT-549 it was 73.5 µM (inactive); with SF-268, 46 µM (inactive).
`O=C(Cc1ccccc1)c1ccc2[nH]c(=O)oc2c1`: the GI50 with HCT-116 was 43.8 µM (inactive); with HCT-15, 58.9 µM; with U-251, 16.8 µM (inactive); in the experiment with HOP-62 it was 90.6 µM (inactive); with PC-3, 41.3 µM (inactive); in the experiment on SK-MEL-2, 32.6 µM (inactive). The GI50 in the experiment on NCI-H460 is 38.8 µM (inactive); in the experiment on OVCAR-8 it was 23.2 µM (inactive); with MDA-MB-435, 33.7 µM (inactive); with MDA-N it was 39.3 µM (inactive); in the experiment with NCI-H226, 1.22 µM (inactive); with SK-OV-3, 76.2 µM (inactive). Moreover, the GI50 is 31 µM (inactive) with K562, 97.3 µM (inactive) with TK-10, 48.6 µM (inactive) with BT-549 and 16.5 µM (inactive) in the experiment with SF-268.
Turning to `COc1ccc2c(c1)CC[C@@H]1[C@@H]2CC[C@]2(C)/C(=N/OCCN3CCCC3)CC[C@@H]12`, the GI50 was 1.78 µM (inactive) in the experiment with HCT-116; 1.25 µM in the experiment with HCT-15; 3.46 µM (inactive) in the experiment with U-251; 1.98 µM (inactive) with HOP-62; 3.85 µM (inactive) in the experiment with PC-3; 1.82 µM (inactive) with SK-MEL-2. Besides, the GI50 in the experiment with NCI-H460 is 1.5 µM (inactive); in the experiment with HCC 2998, 1.85 µM (inactive); in the experiment on OVCAR-8, 3.81 µM (inactive); in the experiment on MDA-MB-435 it was 0.91 µM (active); with MDA-N, 1.98 µM (inactive); in the experiment on SK-MEL-5 it was 1.9 µM (inactive). In addition, the GI50 with NCI-H226 is 1.95 µM (inactive); in the experiment on K562, 0.76 µM (active); with TK-10, 6.47 µM (inactive); in the experiment on A549, 2.78 µM (inactive); in the experiment on BT-549 it was 8.07 µM (inactive); with SF-268 it was 4.07 µM (inactive).
On to `CC(=O)O[C@H]1CC[C@@]2(C)C(=CC[C@@H]3[C@@H]2CC[C@]2(C)c4c(C)n[nH]c4C[C@@H]32)C1`, for which the GI50 with HCT-116 was 11.2 µM (inactive); with HCT-15 it was 15 µM; in the experiment on U-251 it was 15.3 µM (inactive); in the experiment on HOP-62, 21.1 µM (inactive); in the experiment on PC-3, 17.3 µM (inactive); in the experiment with NCI-H460 it was 15.6 µM (inactive). The GI50 in the experiment with HCC 2998 was 18.5 µM (inactive); in the experiment with OVCAR-8 it was 31 µM (inactive); in the experiment on MDA-MB-435, 16 µM (inactive); with MDA-N, 20.1 µM (inactive); with SK-MEL-5, 13.4 µM (inactive); in the experiment with NCI-H226, 16.5 µM (inactive). Besides, the GI50 was 26.9 µM (inactive) in the experiment on SK-OV-3; 2.54 µM (inactive) in the experiment with K562; 19.2 µM (inactive) with TK-10; 14.2 µM (inactive) with A549; 15.2 µM (inactive) in the experiment on BT-549; 23.4 µM (inactive) with SF-268.
